Patent US20230416225A1, “DIAMINOPYRIMIDINE CARBOXAMIDE INHIBITORS OF HPK1” (MERCK SHARP & DOHME LLC, priority 2020, published 2023)

Molecular target: T1, Human HPK1, catalytic domain (Homo sapiens, UniProt Q92918)
T1 construct: purchased Carna
T1 sequence (Q92918 1-346): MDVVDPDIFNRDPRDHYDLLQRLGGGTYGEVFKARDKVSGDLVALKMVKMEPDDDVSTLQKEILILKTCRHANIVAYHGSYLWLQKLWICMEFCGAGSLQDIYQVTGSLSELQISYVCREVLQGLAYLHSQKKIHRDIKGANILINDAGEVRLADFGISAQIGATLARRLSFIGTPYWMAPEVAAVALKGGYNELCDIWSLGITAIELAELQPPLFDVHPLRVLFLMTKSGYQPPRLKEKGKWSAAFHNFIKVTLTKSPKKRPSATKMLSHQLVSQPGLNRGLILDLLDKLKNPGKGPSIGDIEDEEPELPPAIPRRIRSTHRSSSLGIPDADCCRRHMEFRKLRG
Assay: HPK1-SLP76 TR-FRET assay
Assay type: biochemical
Settings: 75 pM HPK1, 10 uM ATP, 10 nM SLP76, 30 min compound pre-incubation

IC50 [nM] | Compound
24.4 | NC(=O)c1cnc(Nc2ccccc2)nc1Nc1cccc2c1CCNC2=O [Example 25-1, 4-[(1-oxo-1,2,3,4-tetrahydroisoquinolin-5-yl)amino]-2-(phenylamino)pyrimidine-5-carboxamide]
1.14 | CC(C)(C#N)c1cccc(Nc2ncc(C(N)=O)c(Nc3cccc4c3CCNC4=O)n2)c1 [Example 25-3, 2-{[3-(2-cyanopropan-2-yl)phenyl]amino}-4-[(1-oxo-1,2,3,4-tetrahydroisoquinolin-5-yl)amino]pyrimidine-5-carboxamide]
2.78 | N#CC1(c2cccc(Nc3ncc(C(N)=O)c(Nc4cccc5c4CCNC5=O)n3)c2)CC1 [Example 25-4, 2-{[3-(1-cyanocyclopropyl)phenyl]amino}-4-[(1-oxo-1,2,3,4-tetrahydroisoquinolin-5-yl)amino]pyrimidine-5-carboxamide]
217 | NC(=O)c1cnc(Nc2ccc(F)cc2)nc1Nc1cccc2c1CCNC2=O [Example 25-5, 2-[(4-fluorophenyl)amino]-4-[(1-oxo-1,2,3,4-tetrahydroisoquinolin-5-yl)amino]pyrimidine-5-carboxamide]
580 | NC(=O)c1cnc(Nc2ccc(F)c(Cl)c2)nc1Nc1cccc2c1CCNC2=O [Example 25-6, 2-[(3-chloro-4-fluorophenyl)amino]-4-[(1-oxo-1,2,3,4-tetrahydroisoquinolin-5-yl)amino]pyrimidine-S-carboxamide]
474 | NC(=O)c1cnc(Nc2ccc(C(F)(F)F)cc2)nc1Nc1cccc2c1CCNC2=O [Example 25-7, 4-[(1-oxo-1,2,3,4-tetrahydroisoquinolin-5-yl)amino]-2-{[4-(trifluoromethyl)phenyl]amino}pyrimidine-5-carboxamide]
176 | C[C@@H](Nc1ncc(C(N)=O)c(Nc2cccc3c2CCNC3=O)n1)c1ccc(F)cc1 [Example 25-8, 2-{[(1R)-1-(4-fluorophenyl)ethyl]amino}-4-[(1-oxo-1,2,3,4-tetrahydroisoquinolin-5-yl)amino]pyrimidine-5-carboxamide]
12.1 | CCc1ccc(Nc2ncc(C(N)=O)c(Nc3cccc4c3CCNC4=O)n2)cc1 [Example 25-9, 2-[(4-ethylphenyl)amino]-4-[(1-oxo-1,2,3,4-tetrahydroisoquinolin-5-yl)amino]pyrimidine-5-carboxamide]
1.22 | NC(=O)c1cnc(Nc2cccc(F)c2)nc1Nc1cccc2c1CCNC2=O [Example 25-10, 2-[(3-fluorophenyl)amino]-4-[(1-oxo-1,2,3,4-tetrahydroisoquinolin-5-yl)amino]pyrimidine-5-carboxamide]
71 | Cc1cccc(Nc2ncc(C(N)=O)c(Nc3cccc4c3CCNC4=O)n2)c1C [Example 25-11, 2-[(2,3-dimethylphenyl)amino]-4-[(1-oxo-1,2,3,4-tetrahydroisoquinolin-5-yl)amino]pyrimidine-5-carboxamide]
0.57 | Cc1cc(Nc2ncc(C(N)=O)c(Nc3cccc4c3CCNC4=O)n2)ccc1C1CC1 [Example 25-12, 2-[(4-cyclopropyl-3-methylphenyl)amino]-4-[(1-oxo-1,2,3,4-tetrahydroisoquinolin-5-yl)amino]pyrimidine-5-carboxamide]
14 | NC(=O)c1cnc(Nc2ccc(C3CC3)cc2)nc1Nc1cccc2c1CCNC2=O [Example 25-13, 2-[(4-cyclopropylphenyl)amino]-4-[(1-oxo-1,2,3,4-tetrahydroisoquinolin-5-yl)amino]pyrimidine-5-carboxamide]
136 | NC(=O)c1cnc(Nc2cccc3ccccc23)nc1Nc1cccc2c1CCNC2=O [Example 25-14, 2-[(naphthalen-1-yl)amino]-4-[(1-oxo-1,2,3,4-tetrahydroisoquinolin-5-yl)amino]pyrimidine-5-carboxamide]
210 | CCc1ccccc1Nc1ncc(C(N)=O)c(Nc2cccc3c2CCNC3=O)n1 [Example 25-15, 2-[(2-ethylphenyl)amino]-4-[(1-oxo-1,2,3,4-tetrahydroisoquinolin-5-yl)amino]pyrimidine-5-carboxamide]
14.5 | NC(=O)c1cnc(Nc2cccc(OC(F)F)c2)nc1Nc1cccc2c1CCNC2=O [Example 25-16, 2-{[3-(difluoromethoxy)phenyl]amino}-4-[(1-oxo-1,2,3,4-tetrahydroisoquinolin-5-yl)amino]pyrimidine-5-carboxamide]
333 | NC(=O)c1cnc(Nc2ccc(F)cc2F)nc1Nc1cccc2c1CCNC2=O [Example 25-17, 2-[(2,4-difluorophenyl)amino]-4-[(1-oxo-1,2,3,4-tetrahydroisoquinolin-5-yl)amino]pyrimidine-5-carboxamide]
20.1 | NC(=O)c1cnc(Nc2cccc(C(F)(F)F)c2)nc1Nc1cccc2c1CCNC2=O [Example 25-18, 4-[(1-oxo-1,2,3,4-tetrahydroisoquinolin-5-yl)amino]-2-{[3-(trifluoromethyl)phenyl]amino}pyrimidine-5-carboxamide]

IC50 [nM] | Compound
2.61 | Cc1cccc(Nc2ncc(C(N)=O)c(Nc3cccc4c3CCNC4=O)n2)c1 [Example 25-19, 2-[(3-methylphenyl)amino]-4-[(1-oxo-1,2,3,4-tetrahydroisoquinolin-5-yl)amino]pyrimidine-5-carboxamide]
3.31 | CC(C)(C)c1cccc(Nc2ncc(C(N)=O)c(Nc3cccc4c3CCNC4=O)n2)c1 [Example 25-20, 2-[(3-tert-butylphenyl)amino]-4-[(1-oxo-1,2,3,4-tetrahydroisoquinolin-5-yl)amino]pyrimidine-5-carboxamide]
45 | NC(=O)c1cnc(Nc2ccc(OC(F)F)c(Cl)c2)nc1Nc1cccc2c1CCNC2=O [Example 25-21, 2-{[3-chloro-4-(difluoromethoxy)phenyl]amino}-4-[(1-oxo-1,2,3,4-tetrahydroisoquinolin-5-yl)amino]pyrimidine-5-carboxamide]
2.98 | Cc1cc(C)cc(Nc2ncc(C(N)=O)c(Nc3cccc4c3CCNC4=O)n2)c1 [Example 25-22, 2-[(3,5-dimethylphenyl)amino]-4-[(1-oxo-1,2,3,4-tetrahydroisoquinolin-5-yl)amino]pyrimidine-5-carboxamide]
346 | NC(=O)c1cnc(NC2(c3ccccc3F)CC2)nc1Nc1cccc2c1CCNC2=O [Example 25-23, 2-{[1-(2-fluorophenyl)cyclopropyl]amino}-4-[(1-oxo-1,2,3,4-tetrahydroisoquinolin-5-yl)amino]pyrimidine-5-carboxamide]
230 | NC(=O)c1cnc(NCc2c(Cl)cccc2Cl)nc1Nc1cccc2c1CCNC2=O [Example 25-24, 2-{[(2,6-dichlorophenyl)methyl]amino}-4-[(1-oxo-1,2,3,4-tetrahydroisoquinolin-5-yl)amino]pyrimidine-5-carboxamide]
1.23 | NC(=O)c1cnc(Nc2cccc(C3CC3)c2)nc1Nc1cccc2c1CCNC2=O [Example 25-25, 2-[(3-cyclopropylphenyl)amino]-4-[(1-oxo-1,2,3,4-tetrahydroisoquinolin-5-yl)amino]pyrimidine-5-carboxamide]
203 | Cc1c(Cl)cccc1Nc1ncc(C(N)=O)c(Nc2cccc3c2CCNC3=O)n1 [Example 25-26, 2-[(3-chloro-2-methylphenyl)amino]-4-[(1-oxo-1,2,3,4-tetrahydroisoquinolin-5-yl)amino]pyrimidine-5-carboxamide]
881 | NC(=O)c1cnc(Nc2ccccc2OC(F)F)nc1Nc1cccc2c1CCNC2=O [Example 25-27, 2-{[2-(difluoromethoxy)phenyl]amino}-4-[(1-oxo-1,2,3,4-tetrahydroisoquinolin-5-yl)amino]pyrimidine-5-carboxamide]
3.72 | CC(C)c1cccc(Nc2ncc(C(N)=O)c(Nc3cccc4c3CCNC4=O)n2)c1 [Example 25-28, 4-[(1-oxo-1,2,3,4-tetrahydroisoquinolin-5-yl)amino]-2-{[3-(propan-2-yl)phenyl]amino}pyrimidine-5-carboxamide]
65.2 | Cc1cc(Nc2ncc(C(N)=O)c(Nc3cccc4c3CCNC4=O)n2)cc(C(F)(F)F)c1 [Example 25-29, 2-{[3-methyl-5-(trifluoromethyl)phenyl]amino}-4-[(1-oxo-1,2,3,4-tetrahydroisoquinolin-5-yl)amino]pyrimidine-5-carboxamide]
0.72 | Cc1cc(Nc2ncc(C(N)=O)c(Nc3cccc4c3CCNC4=O)n2)ccc1F [Example 25-30, 2-[(4-fluoro-3-methylphenyl)amino]-4-[(1-oxo-1,2,3,4-tetrahydroisoquinolin-5-yl)amino]pyrimidine-5-carboxamide]
29.6 | NC(=O)c1cnc(Nc2cc(F)cc(F)c2)nc1Nc1cccc2c1CCNC2=O [Example 25-31, 2-[(3,5-difluorophenyl)amino]-4-[(1-oxo-1,2,3,4-tetrahydroisoquinolin-5-yl)amino]pyrimidine-5-carboxamide]
455 | Cc1ccc(C(F)(F)F)cc1Nc1ncc(C(N)=O)c(Nc2cccc3c2CCNC3=O)n1 [Example 25-32, 2-{[2-methyl-5-(trifluoromethyl)phenyl]amino}-4-[(1-oxo-1,2,3,4-tetrahydroisoquinolin-5-yl)amino]pyrimidine-5-carboxamide]
187 | COc1ccc(Cl)cc1Nc1ncc(C(N)=O)c(Nc2cccc3c2CCNC3=O)n1 [Example 25-33, 2-[(5-chloro-2-methoxyphenyl)amino]-4-[(1-oxo-1,2,3,4-tetrahydroisoquinolin-5-yl)amino]pyrimidine-5-carboxamide]
24.6 | NC(=O)c1cnc(Nc2cccc3c2CCC3)nc1Nc1cccc2c1CCNC2=O [Example 25-34, 2-[(2,3-dihydro-1H-inden-4-yl)amino]-4-[(1-oxo-1,2,3,4-tetrahydroisoquinolin-5-yl)amino]pyrimidine-5-carboxamide]
